87 molecules from a melting point compilation (Tetko et al.; mined from patent text by program, amines drawn as free bases though some values may be those of a salt) can be followed below.

Residues, ends and D or L forms follow the SMILES beside them. *: point of attachment. Cbz = O=C(OCc1ccccc1)* Bounds are passed on as bounds.

As usually defined, the melting point is the temperature, or range, at which the solid turns liquid. In the case of `CCCN(CCC)Cc1nnc(-c2ncn3c2[C@@H]2CCCN2C(=O)c2c(Cl)cccc2-3)o1`, the melting point lay in the range of 158 to 160 °C. To `Clc1cccc(Nc2nc(OCC3CCCCC3)c3[nH]cnc3n2)c1` belongs 196 to 199 °C; to `CCCCCCC(C)(C)c1ccc([C@@H]2CC(=O)C[C@@H](O)C2)c(OCc2ccccc2)c1` (relative stereo), 95 °C; to `Cn1cc(C2=C(c3cn(CCCN=[N+]=[N-])c4ccccc34)C(=O)NC2=O)c2ccccc21`, 222 to 224 °C. The value for `CC(C)OC(=O)c1cc(-n2c(=O)[nH]c3c(c2=O)CCC3)c(F)cc1Br` was 214 to 216 °C. Molecule `O=c1nc(-c2ccc([N+](=O)[O-])cc2)oc2ccccc12` yielded a melting point of 249 to 251 °C. The value for `C#CCNC1=Nc2c(c(C)nn2C)C(c2ccccc2)=NC1` was 193 to 195 °C; that for `CCCCCN(CCCCC)C(=O)CCCCC(=O)O` was 152 °C. The value for `O=C1CCCC2=C1C(c1cccc(F)c1)C1=C(CCCC1)N2` (configuration not stated) was 249 to 251 °C. The value for `COC(=O)C(Cc1ccccc1)NC(=O)C(CC(N)=O)NC(=O)C(CO)NC(=O)OCc1ccccc1` (stereo not drawn) (Cbz-Ser-Asn-Phe-OMe; configuration not given here) was 180 to 183 °C; that for `Cc1cccc(NS(=O)(=O)c2ccc([N+](=O)[O-])cc2)c1` was 121 to 124 °C; that for `CCN(CC)Cc1nc(-c2ncn3c2[C@@H]2CCN2C(=O)c2c(Br)cccc2-3)no1` was 206 to 209 °C. Take `CN1CCC(c2cccc3ccc(N)cc23)CC1`: the melting point was 170 to 171 °C. As for `CC1(C)OC[C@H](CCOc2c(C(C)(C)C)cc(SC(C)(C)Sc3cc(C(C)(C)C)c(O)c(C(C)(C)C)c3)cc2C(C)(C)C)O1`, the melting point is 44 to 46 °C. `CSc1ccccc1NC(=O)Nc1ccc(N2CCN(C(=O)Nc3ccc(OCCO)cc3C(F)(F)F)CC2)cc1` gave a melting point of 115 to 116 °C. The value for `CCOC(=O)CCNC(=O)Nc1ccc([N+](=O)[O-])cc1O` was 115 to 116 °C.

`NS(=O)(=O)c1cc(C(=O)OC[C@@H]2CCCN2N=O)c(NCc2ccco2)cc1Cl` came in with a melting point of 79 to 81 °C. To `O=C1N(Cc2ccc(C(F)(F)F)o2)c2ccccc2C12COc1cc(NC3CCNC3)ccc12` (configuration not stated) belongs 122 to 125 °C. With `CC12CCC(=O)C=C1CCC1C2=CCC2(C)C(=C=C(Cl)S(=O)c3ccccc3)CCC12` (configuration not stated), the melting point lay within 210 to 213 °C. Regarding `CCCSc1ncc(CC(NC(C)=O)C(=O)O)n1Cc1ccccc1Cl` (configuration not stated), the melting point fell in the range of 182 to 184 °C.

`Nc1ccc(Sc2ccccc2)cc1` gave a melting point of 99 °C. To `CCOC(=O)N(Cc1ccc(F)cc1)c1ccc(C(=O)OC)cc1` belongs 83 to 84 °C; to `CCN(CC)P(N)(N)=S`, 54 to 58 °C; to `N#Cc1cnc(N)nc1-c1ccc(Cl)cc1C1(c2ccccc2F)OCC(CCl)O1` (configuration not stated), 184 to 191 °C. To `O=C1CC(=O)N(c2ccccc2)c2cc(Cl)ccc2N1CC1CC1` belongs 215 to 218 °C. To `CC1CC(=O)NN=C1c1ccc2c(c1)C(C)(C)CC(=O)N2C` (configuration not stated) belongs 238 to 241 °C; to `O=C1C=C(O)C(=O)c2cc(-c3ccccc3)ccc21`, 190 to 192 °C.

Take `COCCOc1ccc(/C=C/C2(O)CN3CCC2CC3)cc1` (configuration not stated): the melting point was in the range of 164 to 166 °C.

For the molecule `C=CCONC(=O)Cc1ccc(OC)cc1`, the melting point lay in the range of 100 to 101 °C. The value for `COc1cc(Nc2ncc(-c3ccccc3N(C)C(=O)CN3CCOCC3)o2)ccc1-c1cnco1` was 179 to 181 °C; that for `C=CCn1cc(C(=O)O)c(=O)c2cc(F)c(F)c(F)c21` was 194 to 197 °C; that for `C[C@@H](C(=O)O)N(C)C(=O)CCSSc1ccc([N+](=O)[O-])cc1` was 74 to 77 °C.

Molecule `NCCN1CCOC(c2ccccc2)(c2ccccc2)CC1` returned a melting point of 75 to 80 °C. `CCOP(=O)(OCC)C(CSC(OC(C)=O)OC(=O)N1CCN(c2cc3c(cc2F)c(=O)c(C(=O)O)cn3CC)CC1)P(=O)(OCC)OCC` (configuration not stated) returned a melting point of 89 to 90 °C. The value for `O[C@@H](CNCc1ccccc1)C1CCCCC1` was 56 to 58 °C; that for `O=C(c1ccc(-c2ccccc2)cc1)N1Cc2cccn2Cc2ncccc21` was 171 to 172 °C; that for `O=Cc1ccc2c3c1ccc1cccc(c13)C2` was 209 to 212 °C. To `Clc1ccc2c(C=Cc3ccccc3)ccnc2c1` belongs 120 to 122 °C; to `[N-]=[N+]=Nc1cc(OCCO)ncn1`, 49 to 50 °C; to `COc1ccc(C(=O)Nc2c(C)c(C)c3oc(C)c(-c4ccc(F)cc4)c3c2C)cc1`, 225 to 227 °C. In turn, `O=C(O)Cc1ccc2cc(O)ccc2c1` gave a melting point of 208 to 210 °C.

`CS(=O)(=O)c1ccc(-c2cnn(CC(F)(F)F)c(=O)c2Oc2cc(C(F)(F)F)ccc2F)cc1` had a melting point of 133 to 135 °C.

Consider `CC1COc2c(N3Cc4cccc(F)c4C3)c(F)cc3c(=O)c(C(=O)O)cn1c23` (configuration not stated), for which the melting point is greater than 300 °C. To `Cc1nn(C)c2ncc3c(c12)CCC(C)C3` (configuration not stated) belongs 92 to 101 °C; to `O=C1CCN(c2nc(=O)c3cccnc3s2)CC1`, 222 to 225 °C. To `CCCCCCCCCCCCS(=O)(=O)Nc1cc(-c2nc3cc(Cl)c(Cl)cc3[nH]2)ccc1OC` belongs 203 to 204 °C. The value for `O=C(O)c1ccc(NC(=O)c2ccc(Cl)cc2Cl)cc1Cl` was 171 to 175 °C; that for `CCCN(CCC)C(=O)n1cnc(S(=O)C(C)C)n1` (configuration not stated) was 15 to 20 °C; that for `Cc1ccc2cc(NS(=O)(=O)c3cccc(Cl)c3C)ccc2n1` was 178 °C. On to `CCOC(=O)Cn1c(C(=O)OCC)c2c(c1C(=O)OCC)OCCCO2`, for which the melting point was 140 °C. To `Cn1c(C2CC2)nc2c1CCCC2=O` belongs 108 °C; to `C=C(C)COc1cc(OC)cc(C(=O)OC)c1`, 159 to 161 °C.

`NC1=C2C=NN=C2N(c2ccc(Cl)c(Cl)c2)CN1c1ccccc1` had a melting point of 306 to 307 °C.

Turning to `CCCC(CCC)N(C[C@H]1CC[C@H](CN(C(=O)Nc2ccc(N(C)C)cc2)C(CCC)CCC)CC1)C(=O)Nc1ccc(N(C)C)cc1`, the melting point was 173 to 176 °C.

Consider `CCCCN=C(O)c1cc([N+](=O)[O-])cc(Sc2ccccc2C(=O)O)c1C(=O)O`, for which the melting point is 192 to 196 °C. To `CC(=O)OCC(C)C1CCC2C3CC=C4CC(O)CCC4(C)C3CCC12C` (configuration not stated) belongs 143 °C; to `O=C(c1ccccc1)c1ccc2nc(CS(=O)c3ccccn3)[nH]c2c1` (configuration not stated), 142 to 145 °C.

Consider `S=c1cc(-c2nc[nH]n2)oc2ccccc12`, for which the melting point was 232 °C. To `COc1ccc2c(c1)C(=NO)CCO2` belongs 120 to 121 °C; to `CCOc1cc2c(cc1OC)C(c1ccc(C(=O)N(C(C)C)C(C)C)cc1)=N[C@@H]1CCSC[C@H]21`, 84 to 89 °C. To `Cn1c(COc2ccc(CC3SC(=O)NC3=O)cc2)nc2ccc(Oc3ccc(NC(=O)Nc4ccc(C(F)(F)F)cc4)cc3)cc21` (configuration not stated) belongs 179 to 180 °C; to `CCN1c2ncccc2C(NC)=Nc2c(C)cc(C)nc21`, 128 to 130 °C; to `CCOC(=O)Cc1ccc2cc(Br)ccc2n1`, 100 to 101 °C. On to `Nc1ncc2ncn([C@@H]3C[C@H](O)[C@@H](O)[C@H]3O)c2n1` (racemic), for which the melting point was 153 to 155 °C. The value for `CCCCCCOC(=O)NCc1ccc2c(c1)C(=O)N(C1CCC(=O)NC1=O)C2=O` (configuration not stated) was 111 to 113 °C; that for `O=C(O)CCc1cc2cc(OC(F)(F)F)ccc2n1S(=O)(=O)c1ccccc1` was 138 to 146 °C; that for `Cc1ccc(-c2c(NS(=O)(=O)c3ccc(C(C)(C)C)cc3)nc(C(C)C)nc2OCCO)cc1` was 143 to 144 °C.

As for `CN1CCC(OC(=O)Cc2cnn(-c3ccccc3)c2-c2ccc(Cl)cc2)CC1`, the melting point was 90 to 93 °C. The molecule `O=C1CCC(c2ccc(NN=C(CO)c3ccccc3)cc2)=NN1` returned a melting point of 88 to 96 °C. The value for `Cc1cccc(NC(=O)NCC(=O)N2[C@@H](c3ccccc3)CC[C@H]2c2ccccc2)c1` was 168 °C; that for `O=S(c1c(C(F)(F)F)[nH]c2ccccc12)C(F)(F)F` (configuration not stated) was 183 to 185 °C; that for `C=CCNC(=O)c1cnc(SC)nc1NC(C)C` was 159 to 161 °C. To `CCCC(C)(C)c1cc(C=O)cc(C(C)(C)CCC)c1O` belongs 90 to 92 °C; to `Cc1cc(C2=C(c3cc(C)sc3C)CCC=C2)c(C)s1`, 55 to 57 °C. To `N=C(NCCCc1c[nH]cn1)NC1CCN(c2ccc(C3=NNC(=O)CC3CO)cc2[N+](=O)[O-])CC1` (configuration not stated) belongs 135 to 137 °C; to `CN(Cc1ccc(NC(=O)C2=Cc3cc(-c4ccc(N5CCCCC5)cc4)ccc3CCC2)cc1)C1CCOCC1`, 170 to 171 °C; to `COc1cc2cc(C(=O)Nc3cc(OCc4ccccc4)c4ccccc4c3CCOC(C)=O)[nH]c2c(OC)c1OC`, 55 to 65 °C. Consider `C=CC(=O)OCCNC(=O)CCc1cc(-n2nc3ccccc3n2)c(O)c(C(C)(C)C)c1`, for which the melting point is 80 to 83 °C. The value for `Nc1ccc(-c2cc(=O)c(C(=O)O)cn2-c2cccnc2)cc1` was 207 to 208 °C; that for `CCOC(=O)COc1c(CO)c(C(F)(F)F)nn1C` was 57 to 59 °C; that for `OC(Cn1cncn1)(c1ccc(F)cc1)C(F)(F)c1ccc(F)cc1` (configuration not stated) was 128 to 130 °C. As to `CNc1ccc(C)cc1C(=O)Cc1nnnn1C`, the melting point lay in the range of 141 to 143 °C. The value for `Cc1ccc(C(=O)/C(=C\c2ccccc2)C(=O)OC(C)(C)C)c(O)c1` was 92 to 95 °C; that for `C[C@@H](N1CCN(c2ccc(OC(F)(F)C(F)F)cc2)C1=O)[C@@]1(c2ccccc2F)CO1` was 148 to 149 °C. To `COc1cc(N)c(S(C)(=O)=O)cc1C(=O)O` belongs 178 to 180 °C. `CCOC(OCC)c1nc(N)nc(N)c1-c1ccc(Cl)cc1Cl` registered a melting point of 225 °C. Molecule `CC(C)NC(=O)c1nsc2ccc(-n3c(=O)cc(C(F)(F)F)n(C)c3=O)cc12` returned a melting point of 110 to 113 °C.
